Source: patent publication US20170334919A1, “2-((4-AMINO-3-(3-FLUORO-5-HYDROXYPHENYL)-1H-PYRAZOLO[3,4-D]PYRIMIDIN-1 -YL)METHYL)-3-(2-(TRIFLUORO-MET HYL)BENZYL)QUINAZOLIN-4(3H)-ONE DERIVATIVES AND THEIR USE AS PHOSPHOINOSITIDE 3-KINASE INHIBITORS” (RESPIVERT LTD., priority 2013, published 2017)
Where two headings read alike, the source gives them in different places. Blank lines part the entries; values can stand above or below the compound they belong to.

Key:
[1] = test system: d-U937 cells; experiment: MTT assay, cell viability; assay type: cell-based, human; conditions: 10 μg/mL
Procedure: PMA-differentiated U937 cells were pre-incubated with test compound (10 μg/mL) or vehicle for 4 hr in 5% FCS or 10% FCS for 24 hr. The supernatant was replaced with new media (200 μL) and MTT stock solution (10 μL, 5 mg/mL) was added to each well. After 1 hr incubation, the media were removed, 200 μL of DMSO was added to each well and the plates were shaken lightly for 1 hr prior to reading the absorbance at 550 nm. The percentage loss of cell viability was calculated for each well relative to vehicle (0.5% DMSO)-treatment.

[2] = test system: PBMCs; experiment: Cytostim-induced cytokine production in PBMCs; assay type: cell-based; conditions: Homo sapiens, PBMC
Procedure: As a means of assessing PI3Kδ-dependent cell function, cytostim-induced IL-4, IL-5, IL-13 and IFNγ production in PBMCs were evaluated by Luminex multiplex assay. All healthy volunteers were recruited by Quintiles Limited (London, UK), and blood samples were delivered to Respivert Ltd. This study was approved by the local Ethics Committee, and all subjects gave written informed consent.
PBMC suspensions (200 μL; 2×10^6 cells/mL) were added to a 96-well plate. Cells were treated with either test compounds in neat DMSO or DMSO as vehicle (2 μL) and incubated at RT for 1 hr. Cytostim (Miltentyi Biotec, Surrey, UK) was introduced at a ratio of 1:50 and the cells were incubated for 20 hr (37° C.; 5% CO2). Plates were spun at 500×g for 5 min and the supernatant collected. A high sensitivity cytokine magnetic bead kit (#HSCYTMAG-60SK, Millipore, Watford, UK) was used to measure the four analytes (IL-4, IL-5, IL-13 and IFNγ) by Luminex as follows: The magnetic antibody beads were multiplexed and incubated in a 96-well plate with standard, media only or sample (50 μL) overnight with shaking at 4° C. After washing twice with Millipore wash buffer provided in the kit using a magnetic plate washer, the beads were incubated for 1 hr with detection antibody (50 μL) with shaking at RT. A streptavidin-phycoerythrin solution provided in the kit was added for 30 min with shaking at RT. After washing, the beads were re-suspended in sheath fluid (150 μL) and analysed immediately. The Luminex system was set up to count 50 beads and the amount of each analyte in the supernatant was calculated against a standard curve. The IC50 values were determined from concentration-inhibition curves using XL-Fit (IDBS, Guildford, UK)

[3] = test system: IFNγ-primed U937 cells; experiment: Superoxide anion production assay (zymosan-induced ROS); assay type: cell-based; conditions: Homo sapiens, U-937; read-out: REC50, Zymosan-induced ROS production in IFNγ-primed U937 cells
Procedure: As a means of assessing PI3Kδ dependent cell function, superoxide anion production in IFNγ-primed U937 cells was evaluated by a chemiluminescence assay. The U937 cells (purchased from ATCC, Manassas, Va.) were maintained in RPMI 1640 (Invitrogen Ltd., Paisley, UK) with 10% FCS at 37° C. The cells were suspended at a density of 10^7cells/mL in 40 mL 10% FCS RPMI 1640, and treated with 20 μL of 100 μg/mL IFNγ solution (final concentration: 50 ng/mL), and incubated at 37° C., 5% CO2 for 4 days.
IFNγ-primed U937 cells were seeded at 0.2×10^6 cells/well in a 96-well plate, and pre-incubated with test compounds for 2 hr in starvation media (0.5% FCS RPMI1640-phenol red free). Zymosan A (10 mg) from Saccharomyses cerevisiae (ex Sigma-Aldlich) was resuspended in 1 mL of 150 mM NaCl and boiled at 100° C. for 15 min. After boiling, Zymosan particles were washed with 1 mL of PBS twice, and incubated with 0.5 mL of BioParticles™ opsonized reagents (Life technologies) for 60 min at 37° C. […] Chemiluminescence indicating released superoxide anion was measured every 15 min up to 60 min by luminometric measurement (Varioskan® Flash, Thermo-Fisher Scientific).
The data at 60 min after incubation was used for analysis. […] The relative EC50 values were calculated from the concentration-response curves generated by the serial dilutions of the test compounds using XL-Fit (idbs, Guildford, UK).

[4] = test system: THP1 cells; experiment: Chemotaxis to MCP1; assay type: cell-based; conditions: Homo sapiens, THP-1; read-out: REC50, THP1 cell chemotaxis to MCP1
Procedure: As a means of assessing PI3K γ dependent cell function, THP1 cell chemotaxis to MCP-1 was evaluated using a 48 well-chemotaxis chamber. THP1 cells from a human leukemic monocyte lymphoma cell line, (purchased from ATCC Manassas, Va.) were maintained in RPMI 1640 (Invitrogen Ltd., Paisley, UK) with 10% FCS at 37° C. Cells were re-suspended in 0.5% BSA/RPM11640 (2×10^6 cells/mL) and incubated for 10 min at 37° C., 5% CO2. Cell suspension aliquots (500 μL) were then treated either with compounds in neat DMSO or with DMSO as vehicle (2.5 μL) for 1hr (37° C., 5% CO2).
MCP1 (50 nM) was prepared in 0.5% BSA/RPM11640. MCP1 solution (50 μL) was added to each well in the bottom plate of a 48-well chemotaxis chamber (AP48, NeuroProbe Inc., Gaithersburg, Md.). A polycarbonate membrane (8 μm) was mounted on the bottom chamber, and then the top plate was mounted on the bottom chamber and filter membrane. […]
A solution of MTT (50 μL) in 10% FCS phenol red-free RPM11640 was added to each well, and the plate was incubated for 2 hr (37° C., 5% CO2). Neat DMSO (100 μL) was added to each well to extract formazan formed from MTT and the plates were shaken lightly for 1 hr prior to measuring the absorbance at 595 nm (Varioskan® Flash, Thermo-Fisher Scientific). […] Relative EC50 values were determined from concentration-inhibition curves using XL-Fit (idbs, Guildford, UK).

[5] = test system: cigarette smoke-induced cell accumulation and biomarkers in murine BALF; experiment: Cigarette smoke model; assay type: in vivo, A/J mice
Procedure: A/J mice (males, 5 weeks old) were exposed to cigarette smoke (4% cigarette smoke, diluted with compressed air) for 30 min/day for 11 days using a Tobacco Smoke Inhalation Experiment System for small animals (Model SIS-CS; Sibata Scientific Technology, Tokyo, Japan). Test substances were administered once daily for 3 days after the final cigarette smoke exposure (intra-nasal dose comprising 35 μL of solution in 50% DMSO/isotonic saline).
At 12 hr after administration of the last dose, animals were anesthetized, the trachea was cannulated and bronchial alveolar lavage (BAL) was carried out by the instillation into and then withdawal from the lungs, of PBS (100 mL/kg). Total cell numbers in the BALF samples were measured using a haemocytometer under a phase-contrast microscope. The proportions of alveolar macrophages and neutrophils were determined by FACS analysis using anti-mouse MOMA2-FITC (macrophage) or anti-mouse 7/4 (neutrophil).
Cells were suspended in PBS and were incubated with anti-MOMA2-FITC (2 μg/mL, Catalogue no SM065F, Acris Antibodies GmbH, Herford, Germany) or anti-7/4-FITC (2 μg/mL, Catalogue no CL050F, Acris Antibodies GmbH, Herford, Germany) for 30 min at 30° C., and also counterstained with propidium iodide (2 μg/mL) to allow exclusion of necrotic cells. The cells were washed with PBS, and transferred to FACS tubes. Samples was set in a flow cytometer (ALTRA II; Beckman Coulter Japan, Tokyo, Japan), and a single-parameter FL2 [PMT2] (FITC) histogram with log x-axis was plotted to illustrate relative intensity of FITC.
Data files are stored for subsequent analysis using Kaluza analysis software (ver. 1.2) to calculate the proportion of each cell type. The levels of CXCL1(KC), MCP1, TNFα, IL-17 or osteopontin in BALF were determined using Quentikine® mouse KC, MCP1, TNFα, IL-17 or osteopontin ELISA kit (R&D systems, Inc., Minneapolis, Minn., USA). The presence of malondialdehyde was measured using OxiSelect® TBARS Assay Kit (MDA Quantitation; Cell Biolabs Inc, San Diego, Calif., USA).

EC50 [3]: 143 nM
EC50 [4]: > 14200 nM
SMILES: Nc1ncnc2c1c(-c1cc(O)cc(F)c1)nn2Cc1nc2cccc(C#CCOCCOCCO)c2c(=O)n1Cc1ccccc1C(F)(F)F [Compound (Ia), 2-((4-Amino-3-(3-fluoro-5-hydroxyphenyl)-1H-pyrazolo[3,4-d]pyrimidin-1-yl)methyl)-5-(3-(2-(2-hydroxyethoxy)ethoxy)prop-1-yn-1-yl)-3-(2-(trifluoromethyl)benzyl)quinazolin-4(3H)-one]
Cell Viability MTT Assay in d-U937 cells at 4 hr ([1]; 4 hr): −ve (−ve indicates a value of <30% inhibition at 10 μg/mL)
Cell Viability MTT Assay in d-U937 cells at 24 hr ([1]; 24 hr): −ve (−ve indicates a value of <30% inhibition at 10 μg/mL)
IC50 ([2]; read-out: IC50, Cytostim-induced IFNγ in PBMCs): 60.8 nM
IC50 ([2]; read-out: IC50, Cytostim-induced IL-4 in PBMCs): 674 nM
IC50 ([2]; read-out: IC50, Cytostim-induced IL-5 in PBMCs): 14.5 nM
IC50 ([2]; read-out: IC50, Cytostim-induced IL-13 in PBMCs): 6.1 nM

SMILES: C[C@@H]1C[C@H]2[C@@H]3CCC4=CC(=O)C=C[C@]4(C)[C@@]3(F)[C@@H](O)C[C@]2(C)[C@@]1(O)C(=O)CO [dexamethasone, reference compound]
activity in the cigarette smoke model ([5]; 0.3-10 mg/kg, p.o.): inactive

SMILES: CCC(=O)O[C@]1(C(=O)SCF)[C@H](C)C[C@H]2[C@@H]3C[C@H](F)C4=CC(=O)C=C[C@]4(C)[C@@]3(F)[C@@H](O)C[C@@]21C [fluticasone propionate, reference compound]
effect as monotherapy in the cigarette smoke model ([5]; dose used for co-administration with compound (I)): lacks any significant effect as monotherapy
